Experimental findings from PMC9101642 (Molecules, 2022) are described below.

Read-outs that look alike come from different tables or passages of the source. Marks after values point to notes of the source that are not given here.

In data set [1] the test system is progesterone receptor (PR). Nature of the data set: ERα functional antagonism cell assay (PR as biomarker) in MCF-7. Format: cell-based. The note with it: Homo sapiens, MCF7; progesterone receptor as biomarker for ERα antagonism in MCF-7.
The test system of a further data set is MCF-7 cell lines. Briefly: MTT antiproliferative assay. Format: cell-based, human. On the technique in general: Tetrazolium assays rely on reduction of a dye to a coloured formazan, in cell work by metabolically active cells.
Data set [2] is described as follows: Pharmacokinetics study, oral bioavailability. The note with it: rat.
In another data set the test system is MDA-MB-231 cell lines. Nature of the data set: MTT antiproliferative assay. Format: cell-based, human.
Data set [3] relates to MNU-induced breast cancer tissue. Briefly: Histopathology of breast sections. Format: in vivo, Wistar rats. The source says: The impact of selected leads on BC tissue was registered after their administration to experimental animals with MNU-induced BC (Figure 9 and Supplementary Material Figures S211–S218). […] In contrast to this, the administered leads were harmless in both concentrations, neutralizing the MNU-induced changes, judging by the lobuloalveolar units and cuboidal epithelial cells found (Figure 9C,D, and Supplementary Material Figures S214–S218). […]
Histopathological Studies
histopathological changes. […]

Data set [4] can be described thus: Lipophilicity by shake-flask method. The note with it: n-octanol/phosphate buffer, pH 7.4.
The nature of data set [5]: MTT antiproliferative assay (neutral control). The note with it: human, MRC-5 lung fibroblast cells, MRC-5 (IC50 nM).
The test system of another data set is MCF-7 cells. Nature of the data set: Cell cycle distribution by flow cytometry. Format: cell-based, human. The note with it: 24 h.
Data set [6] has as its system MNU-induced breast cancer. Briefly: In vivo anticancer screening, MNU-induced mammary tumorigenesis. Set-up: species or system female Wistar rats.
For data set [7], the system named is Ishikawa endometrial adenocarcinoma cells. Briefly: Antiproliferative assay. Format: cell-based. To be noted: Homo sapiens, growth inhibition.
A further data set deals with ERβ (Homo sapiens, UniProt Q92731). Nature of the data set: Fluorescence polarization competition assay: antagonistic potency and relative binding affinity. The note with it: log of % relative binding affinity, estradiol = 100%. A general note: In fluorescence polarisation assays a small probe gives low polarisation when free and higher when bound to something large.
Data set [8] is described as follows: Liver oxidative stress markers after treatment of MNU-induced rats. Format: in vivo, Wistar rats. More on the design: CAT: unit not given here. The note with it: liver; for CAT: catalase activity; for GSH: reduced glutathione; for SOD (U/mg): superoxide dismutase activity. Here is the method: (§1) Rats were housed at 3 per cage and
(§2) The breast cancer was induced after the MNU (Sigma Aldrich CAS No. 684-93-5) administration. An aqueous solution at a concentration of 10 mg/ml was made by wetting the NMU powder with 3% acetic acid and then dissolving it in 0.9% NaCl solution; a fresh solution was prepared for each injection. Rats were given intraperitoneal (i.p.) 50 mg/kg of MNU on the 50th day of age. Animals were divided into different groups with six animals in each group. Group I (intact control) received 0.9% NaCl solution.
(§3) Groups II-IV and V-VII were introduced with MNU. Two weeks after MNU treatment, animals were treated orally with synthesized compounds and control substances (5 and 50 mg/kg, for groups II-IV and V-VII, respectively) by gavage once per day for six weeks. Animals in the intact control group and untreated MNU group were given vehicle (Tween 80) according to the experimental protocol. […]
(§4) Upon finishing the treatment with synthesized compounds, animals were sacrificed, and plasma, serum, and liver samples were collected. […]
Determination of Antioxidant Markers in Liver Homogenate
Rat liver samples were homogenized in phosphate buffer (5 mM, pH = 7.4) to give a 10% (w/v) liver homogenate and then centrifuged at 4000 rpm for 15 min at 4°C. The supernatant of liver homogenate was used for the estimation of reduced glutathione (GSH) and catalase (CAT) levels by the colorimetric method. The contents of malondialdehyde (MDA) in the supernatant of the liver homogenates were determined using 1,1,3,3-tetraethoxypropane as standard. Total protein concentrations were determined according to the method of Lowry using bovine serum albumin as […]

Data set [9] is described as follows: Plasma protein binding determination. Format: in vitro ADME, rat. To be noted: rat plasma, 37 °C, read-out: Rat PPB (%free). Here is the method: as §1, §2, §3, §4
Rat plasma containing either 5 or 50 mg/kg bwt of the tested compounds was incubated at 37°C upper reservoir of the washed Centri-free YM-30 ultrafiltration units (Millipore, Bedford, MA) and then centrifuged for 20 min at 2,000 g. Aliquots of the ultrafiltrates and unfiltered incubation mixtures were analyzed for the total protein concentration by the bicinchoninic acid assay for protein concentration (BCA assay; Pierce, Rockford, IL).

The nature of data set [10]: Serum biochemical markers after treatment of MNU-induced rats. Format: in vivo, Wistar rats. More on the design: TBC: unit not given here. To be noted: for ALP (A/L) / ALT (A/L) / AST (U/L) / γ-GT (U/L): serum; for TBC: total bilirubin content. Here is the method:
as §1, §2, §3
Upon finishing the treatment with synthesized compounds, animals were sacrificed, and plasma, serum, and liver samples were collected.
Measurement of Serum Biochemical Markers
The activities of AST and ALT on 340 nm, and ALP on 405 nm, were determined by UV-Vis kinetic methods according to recommendations of the Expert Panel of the IFCC (International Federation of Clinical Chemistry). The colorimetric methods were used for the determination of total bilirubin (Jendrassik-Grof 550 nm method). All kinetic and colorimetric measurements were recorded using a Perkin-Elmer Lambda 25 UV/Vis spectrophotometer. […]

A further data set addresses T1, ERα (Homo sapiens, UniProt P03372).
T1 sequence (P03372 1-595): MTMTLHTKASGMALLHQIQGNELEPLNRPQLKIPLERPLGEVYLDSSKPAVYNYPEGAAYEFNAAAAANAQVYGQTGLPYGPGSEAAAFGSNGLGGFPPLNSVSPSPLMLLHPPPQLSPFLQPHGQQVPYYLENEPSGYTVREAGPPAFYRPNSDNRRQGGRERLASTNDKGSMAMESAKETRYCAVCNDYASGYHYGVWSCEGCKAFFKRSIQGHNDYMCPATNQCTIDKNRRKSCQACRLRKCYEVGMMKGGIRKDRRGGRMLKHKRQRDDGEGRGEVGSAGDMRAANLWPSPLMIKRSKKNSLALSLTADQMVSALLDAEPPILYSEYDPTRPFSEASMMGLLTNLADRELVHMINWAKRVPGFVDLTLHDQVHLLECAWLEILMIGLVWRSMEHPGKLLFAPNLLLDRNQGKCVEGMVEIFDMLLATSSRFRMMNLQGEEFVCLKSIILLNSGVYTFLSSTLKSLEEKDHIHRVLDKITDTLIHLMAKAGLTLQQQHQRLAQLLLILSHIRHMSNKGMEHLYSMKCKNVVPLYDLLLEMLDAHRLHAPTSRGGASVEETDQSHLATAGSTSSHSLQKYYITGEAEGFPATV
Nature of the data set: Fluorescence polarization competition assay: antagonistic potency and relative binding affinity. To be noted: virtually screened NCI hits, Table S17; read-out: ERα (IC50).

Data set [11] has as its system MRC-5 human lung fibroblast cell lines.
Where [12] appears, read: MFD 1000 mg/kg (MNU: MTD 100 mg/kg bwt), 5 days.
The mark [13] stands for this setting: dose 50 mg/kg (compounds per os after MNU; MNU alone i.p.).
The mark [14] stands for this setting: virtually screened NCI hits, Table S17, read-out: MCF-7 (IC50).
[15] abbreviates: virtually screened NCI hits, Table S17, read-out: MDA-MB-231 (IC50).

Chain of ERβ (Q92731 whole entry): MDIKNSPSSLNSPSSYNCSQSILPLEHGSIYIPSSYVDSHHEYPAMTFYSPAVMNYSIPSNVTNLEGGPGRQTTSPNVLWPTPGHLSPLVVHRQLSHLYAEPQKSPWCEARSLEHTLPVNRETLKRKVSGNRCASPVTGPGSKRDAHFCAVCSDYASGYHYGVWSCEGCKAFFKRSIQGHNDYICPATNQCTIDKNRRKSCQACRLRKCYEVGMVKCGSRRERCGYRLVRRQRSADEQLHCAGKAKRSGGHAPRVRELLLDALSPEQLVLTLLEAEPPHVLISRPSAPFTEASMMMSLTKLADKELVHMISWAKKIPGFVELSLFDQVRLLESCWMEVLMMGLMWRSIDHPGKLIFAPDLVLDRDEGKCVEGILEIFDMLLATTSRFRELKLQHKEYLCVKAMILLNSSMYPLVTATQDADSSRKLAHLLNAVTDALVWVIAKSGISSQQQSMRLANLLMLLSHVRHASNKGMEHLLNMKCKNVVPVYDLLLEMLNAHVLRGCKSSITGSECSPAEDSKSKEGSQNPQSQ

For orientation: IC50 means the concentration that gives 50% inhibition. In general, logD refers to lipophilicity at a set pH, counting ionised and neutral species. In data set [1], `CC/C(=C(\c1ccc(O)cc1)c1ccc(OCCN(C)C)cc1)c1ccccc1` [Compound 4-OHT., 4-hydroxytamoxifen, reference compound] came in with an IC50 of more than 100 nM. Further, the IC50 in the data set on MCF-7 cell lines (growth inhibition, 48 h, read-out: MCF-7 (IC50 nM)) was 1.19 ± 0.57 nM. Besides, the IC50 with MCF-7 cell lines (references in Table S17, read-out: MCF-7 (IC50 nM)) was 1.24 ± 0.32 nM. The BIO in [2] (oral 5 mg/kg) was 88 ^‖. Moreover, the BIO in data set [2] (oral 50 mg/kg) was determined as 94. In addition, in the data set on MDA-MB-231 cell lines (growth inhibition, 48 h, read-out: MDA-MB-231 (IC50 nM)), the IC50 was 37.1 ± 0.45 nM. The IC50 in the data set on MDA-MB-231 cell lines (references in Table S17, read-out: MDA-MB-231 (IC50 nM)) was determined as 37.04 ± 0.32 nM. Also, under setting [12], the colon section histopathology result was “no morphological changes”, the heart section histopathology entry is reported as “no morphological changes”, the kidney section histopathology result is “no morphological changes” and the liver section histopathology result is reported as “no morphological changes”. Also, under setting [12], the lung section histopathology entry was “no morphological changes” and the spleen section histopathology entry is on record as “no morphological changes”. Further, the “WL after MFD (day 1, mg)” value (average body weight at day 1, dosing at MFD) is recorded as 305.84 ± 0.59 mg. For the same molecule, the “WL after MFD (day 5, mg)” value (average body weight at day 5, dosing at MFD) stood at 297.65 ± 0.39 mg. In addition, where the note is “maximum feasible (or tolerated) dose, 5 days per os, 5-1000 mg/kg bwt”, the “MFD (5 days)” value stood at 1000 mg/kg. Further, the breast section histopathology entry in data set [3] (5 mg/kg of bwt) was “necrosis (NEC)”. The breast section histopathology result in data set [3] (50 mg/kg of bwt) is on record as “necrosis (NEC)”. Moreover, in [4], the logD at 30 min came to 3.64. The molecule also came in with an IC50 at 48 h in [5] (growth inhibition) of more than 10 nM. For the same molecule, in data set [5] (references in Table S17), the IC50 at 48 h is more than 100 nM. In the data set on MCF-7 cells (0.1 nM), the “Cell Cycle (%) G0/G1” value is recorded as 57.22 ± 0.37 *^,†,§ %, the “Cell Cycle (%) G2/M” value was 24.02 ± 0.53 *^,,†§ % and the “Cell Cycle (%) S” value is given as 18.76 ± 0.41 *^,†,§ %. In addition, in the data set on MCF-7 cells (1 nM), the “Cell Cycle (%) G0/G1” value is given as 63.26 ± 0.41 *^,†,§ %, the “Cell Cycle (%) G2/M” value is listed as 15.60 ± 0.15 *^,†,§ % and the “Cell Cycle (%) S” value is recorded as 21.14 ± 0.25 *^,†,§ %. In data set [6] (dose 5 mg/kg per os after MNU), the “Tumor Burden (week)” value was 3.36 ± 0.38 *^,†,‖ week, the “Tumor Latency (week)” value is given as 7 * week and the “Tumor Volume (mm^3)” value is listed as 1.88 ± 0.35 *^,†,‖ mm^3. Besides, in data set [6] (setting [13]), the “Tumor Burden (week)” value was 3.22 ± 0.21 *^,†,┴ week, the “Tumor Latency (week)” value is given as 10 *^,† week and the “Tumor Volume (mm^3)” value is 1.35 ± 0.63 *^,†,┴ mm^3. The same molecule came in with an IC50 in data set [7] of 1.29 ± 0.43 nM. Besides, the “logRBA ERβ” value at ERβ is 1.39 ^†. In data set [8] (dose 5 mg/kg), the CAT is reported as 13.56±0.88, the “GSH” value worked out at 4.67 mg/g and the “SOD (U/mg)” value is recorded as 4.87±0.72 U/mg. Moreover, in data set [8] (dose 50 mg/kg), the CAT is 20.46±0.76, the “TBARS” value turned out to be 3.63 ± 0.32 nmol/mg, the “GSH” value is recorded as 3.33 mg/g and the “SOD (U/mg)” value amounted to 7.46±0.34 U/mg. Moreover, the “TP” value in data set [8] (total protein content, dose 50 mg/kg) is 47.46 g/L. Also, in data set [9] (5 mg/kg), the fraction unbound at 5 mg/kg bwt came to 0.0185. For the same molecule, in [9] (50 mg/kg), the fraction unbound at 50 mg/kg bwt was 0.0252. In data set [10] (dose 5 mg/kg), the “ALP (A/L)” value is listed as 105.32±0.31 A/L, the “ALT (A/L)” value was 52.44±0.31 A/L, the “AST (U/L)” value turned out to be 53.76±0.32 U/L and the “γ-GT (U/L)” value amounted to 16.54 U/L. Moreover, the TBC in data set [10] (dose 5 mg/kg) stood at 23.56. For the same molecule, in data set [10] (dose 50 mg/kg), the “ALP (A/L)” value amounted to 131.43±0.43 A/L, the “ALT (A/L)” value was 59.63±0.32 A/L, the “AST (U/L)” value is given as 58.41±0.25 U/L and the “γ-GT (U/L)” value amounted to 18.47±0.45 U/L. In addition, the TBC in data set [10] (dose 50 mg/kg) turned out to be 25.57.
`O=C(c1ccccc1)c1ccccc1C(=O)c1ccccc1` [Compound 6145]: the IC50 in the data set on MCF-7 cell lines (setting [14]) was 93400 ± 11400 nM; in the data set with MDA-MB-231 cell lines (setting [15]), more than 100000 nM; at ERα, 75.5 ± 6.46 µM; in data set [11] it was more than 100 µM.
With `O=C(O)c1ccccc1-n1c2ccccc2c2ccccc21` [Compound 10211], the IC50 is more than 100000 nM in the data set on MDA-MB-231 cell lines (setting [15]), 66.9 ± 6.46 µM at ERα and more than 100 µM in [11].
With `c1ccc(-n2c3ccccc3c3ccccc32)cc1` [Compound 10416], the concentration for half-maximal inhibition (IC50) was 89000 ± 11400 nM with MCF-7 cell lines (setting [14]), more than 100000 nM with MDA-MB-231 cell lines (setting [15]), 74.8 ± 6.46 µM on ERα and more than 100 µM in [11].
With `O=c1c(-c2ccc(O)cc2)coc2cc(O)cc(O)c12` [Compound 36586], the IC50 in the data set with MCF-7 cell lines (setting [14]) was more than 100000 nM; in the data set with MDA-MB-231 cell lines (setting [15]), more than 100000 nM; in [11], more than 100 µM.
On to `COc1ccc(C(C#N)=C(c2ccccc2)c2ccccc2)cc1` [Compound 101789], for which the IC50 with MCF-7 cell lines (setting [14]) is 25900 ± 11400 nM; with MDA-MB-231 cell lines (setting [15]), more than 100000 nM; on ERα, 17.9 ± 1.34 µM; in data set [11] it was 14.2 ± 11.4 µM.
